One assay concerns the target Substance-P receptor (Homo sapiens, UniProt P25103). The format is cell membranes, CHO, Membrane. The following applies: cho. Also: in other assays of this panel Not Active means under 50% inhibition at 10 µM.
In assay [1] the target is T1, Muscarinic acetylcholine receptor M2 (Homo sapiens, UniProt P08172). Also: in other assays of this panel Not Active means under 50% inhibition at 10 µM.
T1 sequence (P08172 whole entry): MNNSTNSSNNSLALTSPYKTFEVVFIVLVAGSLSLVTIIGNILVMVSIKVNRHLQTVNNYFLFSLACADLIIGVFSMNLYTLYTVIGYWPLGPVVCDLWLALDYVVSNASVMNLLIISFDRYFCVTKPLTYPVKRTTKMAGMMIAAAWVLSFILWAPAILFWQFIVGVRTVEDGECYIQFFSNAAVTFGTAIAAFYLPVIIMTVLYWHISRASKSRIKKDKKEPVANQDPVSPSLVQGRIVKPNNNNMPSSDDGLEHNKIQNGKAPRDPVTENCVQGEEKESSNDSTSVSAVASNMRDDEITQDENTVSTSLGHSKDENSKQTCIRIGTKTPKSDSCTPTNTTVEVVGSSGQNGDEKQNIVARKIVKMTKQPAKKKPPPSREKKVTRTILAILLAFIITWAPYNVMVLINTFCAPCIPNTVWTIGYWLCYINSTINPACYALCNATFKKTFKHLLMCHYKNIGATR
The format is cell membranes, CHO-K1, Membrane.

For assay [2], the target named is 5-hydroxytryptamine receptor 1B (Rattus norvegicus, UniProt P28564). It counts as cell membranes, Wistar, Cerebral cortex, Membrane. Also: in other assays of this panel Not Active means under 50% inhibition at 10 µM.
5-hydroxytryptamine receptor 1B, sequence (P28564 whole entry): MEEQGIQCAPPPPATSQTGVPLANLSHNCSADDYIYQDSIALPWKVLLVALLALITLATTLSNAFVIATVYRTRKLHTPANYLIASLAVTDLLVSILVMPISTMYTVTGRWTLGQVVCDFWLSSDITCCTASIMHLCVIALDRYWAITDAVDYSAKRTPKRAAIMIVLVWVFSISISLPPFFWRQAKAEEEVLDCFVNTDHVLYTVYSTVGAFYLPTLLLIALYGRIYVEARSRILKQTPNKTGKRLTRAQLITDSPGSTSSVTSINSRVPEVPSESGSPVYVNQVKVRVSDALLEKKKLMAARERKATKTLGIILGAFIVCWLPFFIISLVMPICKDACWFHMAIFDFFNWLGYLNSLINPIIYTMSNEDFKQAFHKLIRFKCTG
In assay [3] the target is T2, Muscarinic acetylcholine receptor M4 (Homo sapiens, UniProt P08173). Also: in other assays of this panel Not Active means under 50% inhibition at 10 µM.
T2 sequence (P08173 whole entry): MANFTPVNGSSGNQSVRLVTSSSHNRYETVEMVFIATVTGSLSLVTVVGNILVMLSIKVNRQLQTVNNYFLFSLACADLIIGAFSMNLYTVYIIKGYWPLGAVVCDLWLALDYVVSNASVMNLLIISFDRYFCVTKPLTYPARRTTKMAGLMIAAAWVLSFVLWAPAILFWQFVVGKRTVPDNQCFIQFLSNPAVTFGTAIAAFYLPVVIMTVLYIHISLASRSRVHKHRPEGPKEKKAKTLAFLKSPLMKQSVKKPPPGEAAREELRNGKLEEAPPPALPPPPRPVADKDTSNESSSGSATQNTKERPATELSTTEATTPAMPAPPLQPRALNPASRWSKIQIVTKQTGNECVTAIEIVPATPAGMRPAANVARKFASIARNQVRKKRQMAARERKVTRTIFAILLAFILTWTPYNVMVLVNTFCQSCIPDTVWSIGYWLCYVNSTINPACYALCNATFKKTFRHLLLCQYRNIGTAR
The format is cell membranes, CHO-K1, Membrane.

Assay [4] in a line: DRUGMATRIX: beta-Lactamase enzyme inhibition (substrate: Nitrocefin). Set-up: species or system Bacillus cereus. The following applies: Not Active = under 50% inhibition at 10 µM.
The next assay concerns the target T3, Adenosine receptor A3 (Homo sapiens, UniProt P0DMS8).
T3 sequence (P0DMS8 whole entry): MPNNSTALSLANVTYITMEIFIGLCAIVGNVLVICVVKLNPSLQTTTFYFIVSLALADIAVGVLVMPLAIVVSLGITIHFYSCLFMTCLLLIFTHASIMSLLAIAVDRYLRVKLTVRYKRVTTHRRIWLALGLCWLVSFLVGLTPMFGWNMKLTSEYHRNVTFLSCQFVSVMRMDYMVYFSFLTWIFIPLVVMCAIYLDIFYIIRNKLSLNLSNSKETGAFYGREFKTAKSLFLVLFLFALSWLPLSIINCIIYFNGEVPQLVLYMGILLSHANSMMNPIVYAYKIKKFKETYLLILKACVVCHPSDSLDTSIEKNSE
It counts as cell membranes, CHO-K1, Membrane. The following applies: cho-k1.

One may read the IC50 as the midpoint of a concentration-inhibition curve. What is called Ki is a measure of affinity in units of concentration, obtained from inhibition or displacement.

Substance-P receptor, sequence (P25103 whole entry): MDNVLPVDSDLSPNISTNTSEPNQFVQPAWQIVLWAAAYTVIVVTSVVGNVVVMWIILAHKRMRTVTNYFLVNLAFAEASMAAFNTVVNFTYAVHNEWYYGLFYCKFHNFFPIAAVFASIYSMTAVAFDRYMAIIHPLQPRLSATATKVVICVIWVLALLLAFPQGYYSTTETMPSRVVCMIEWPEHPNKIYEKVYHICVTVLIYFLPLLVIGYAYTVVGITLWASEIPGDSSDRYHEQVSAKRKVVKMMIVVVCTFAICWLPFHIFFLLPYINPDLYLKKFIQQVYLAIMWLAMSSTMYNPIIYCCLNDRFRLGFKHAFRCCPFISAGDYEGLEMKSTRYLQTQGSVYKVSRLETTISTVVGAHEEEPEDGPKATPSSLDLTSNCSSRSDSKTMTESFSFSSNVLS

For `CN(C)C(=O)Oc1cccc([N+](C)(C)C)c1.[Br-]` [NEOSTIGMINE BROMIDE], the IC50 result (at Substance-P receptor; in assay [1] (cho-k1); in assay [2]; in assay [3] (cho-k1); in assay [4]; against Adenosine receptor A3) was “Not Active” each time. The inhibition constant Ki entry in assay [4] is “Not Active”.

Consider `NC(=O)c1cccnc1` [NIACINAMIDE], for which the IC50 result (against Substance-P receptor; in assay [1] (cho-k1); in assay [2]; in assay [3] (cho-k1); in assay [4]; on Adenosine receptor A3) was “Not Active” each time. Besides, the Ki result in assay [4] is “Not Active”.

With `CS(=O)(=O)Nc1ccc([N+](=O)[O-])cc1Oc1ccccc1` [NIMESULIDE], the IC50 entry (on Substance-P receptor; in assay [1] (cho-k1); in assay [2]; in assay [3] (cho-k1); in assay [4]; against Adenosine receptor A3) was “Not Active” in each case. For the same compound, the Ki result in assay [4] is reported as “Not Active”.

For the compound `CN1C(=O)CN=C(c2ccccc2)c2cc([N+](=O)[O-])ccc21` [NIMETAZEPAM], the IC50 entry (against Substance-P receptor; in assay [1] (cho-k1); in assay [2]; in assay [3] (cho-k1); in assay [4]; at Adenosine receptor A3) was “Not Active” in each case. Besides, in assay [4], the Ki entry is recorded as “Not Active”.

`COc1ccc2c(c1OC)C(=O)O[C@@H]2[C@H]1c2c(cc3c(c2OC)OCO3)CCN1C` [NOSCAPINE]: the IC50 result (against Substance-P receptor; in assay [1] (cho-k1); in assay [2]; in assay [3] (cho-k1); in assay [4]; against Adenosine receptor A3) was “Not Active” each time. In addition, the Ki result in assay [4] is reported as “Not Active”.

`C[C@@H]1O[C@@H](O[C@H]2C[C@@H](O)[C@]3(CO)[C@H]4[C@H](O)C[C@]5(C)[C@@H](C6=CC(=O)OC6)CC[C@]5(O)[C@@H]4CC[C@]3(O)C2)[C@H](O)[C@H](O)[C@H]1O` [OUABAIN]: the IC50 entry (against Substance-P receptor; in assay [1] (cho-k1); in assay [2]; in assay [3] (cho-k1); in assay [4]; against Adenosine receptor A3) was “Not Active” each time. Further, the Ki result in assay [4] is “Not Active”.

As to `NC(=O)N1c2ccccc2CC(=O)c2ccccc21` [OXCARBAZEPINE], the IC50 entry (on Substance-P receptor; in assay [1] (cho-k1); in assay [2]; in assay [3] (cho-k1); in assay [4]; at Adenosine receptor A3) was “Not Active” each time. Also, the inhibitory constant (Ki) result in assay [4] was “Not Active”.

With `COc1ccnc(C[S+]([O-])c2nc3ccc(OC(F)F)cc3[nH]2)c1OC` (stereo not drawn) [PANTOPRAZOLE], the IC50 result (against Substance-P receptor; in assay [1] (cho-k1); in assay [2]; in assay [3] (cho-k1); in assay [4]; at Adenosine receptor A3) was “Not Active” throughout. Further, in assay [4], the Ki entry is on record as “Not Active”.

Regarding `NNCCc1ccccc1` [PHENELZINE], the IC50 result (on Substance-P receptor; in assay [1] (cho-k1); in assay [2]; in assay [3] (cho-k1); in assay [4]; against Adenosine receptor A3) was “Not Active” throughout. The Ki result in assay [4] is recorded as “Not Active”.

`CCc1ccc(CCOc2ccc(CC3SC(=O)NC3=O)cc2)nc1` (stereo not drawn) [PIOGLITAZONE]: the IC50 entry (against Substance-P receptor; in assay [1] (cho-k1); in assay [2]; in assay [3] (cho-k1); in assay [4]; at Adenosine receptor A3) was “Not Active” each time. In assay [4], the Ki entry is reported as “Not Active”.

Take `CCCNC(C)C(=O)Nc1ccccc1C` (stereo not drawn) [PRILOCAINE]: the IC50 result (at Substance-P receptor; in assay [1] (cho-k1); in assay [2]; in assay [3] (cho-k1); in assay [4]; against Adenosine receptor A3) was “Not Active” in each case. The Ki entry in assay [4] was “Not Active”.

With `CCN(CC)CCNC(=O)c1ccc(N)cc1` [PROCAINAMIDE], the IC50 entry (on Substance-P receptor; in assay [1] (cho-k1); in assay [2]; in assay [3] (cho-k1); in assay [4]; against Adenosine receptor A3) was “Not Active” throughout. In addition, the Ki entry in assay [4] is reported as “Not Active”.

With `CCN(CC)CCCC(C)Nc1c2ccc(Cl)cc2nc2ccc(OC)cc12` (stereo not drawn) [QUINACRINE], the IC50 result on Substance-P receptor was “Not Active”; in assay [1] (read-out: IC50), 964 nM; in assay [2], “Not Active”; in assay [3] (read-out: IC50), 1980 nM; in assay [4], “Not Active”; against Adenosine receptor A3, “Not Active”. The values for the Ki in assay [1] (read-out: Ki), in assay [3] (read-out: Ki) and in assay [4] were 343 nM, 277 nM and “Not Active”, respectively.

Regarding `C[C@]12C=CC(=O)C=C1CC[C@H]1[C@@H]3C[C@@H](O)[C@](O)(C(=O)CO)[C@@]3(C)C[C@H](O)[C@@]12F` [TRIAMCINOLONE], the IC50 result (at Substance-P receptor; in assay [1] (cho-k1); in assay [2]; in assay [3] (cho-k1); in assay [4]; against Adenosine receptor A3) was “Not Active” each time. In assay [4], the Ki result is recorded as “Not Active”.

On to `CC[C@]1(O)C[C@@H]2CN(CCc3c([nH]c4ccccc34)[C@@](C(=O)OC)(c3cc4c(cc3OC)N(C)[C@H]3[C@@](O)(C(N)=O)[C@H](O)[C@]5(CC)C=CCN6CC[C@]43[C@@H]65)C2)C1` [VINDESINE], for which the IC50 result (against Substance-P receptor; in assay [1] (cho-k1); in assay [2]; in assay [3] (cho-k1); in assay [4]; against Adenosine receptor A3) was “Not Active” each time. Besides, the Ki result in assay [4] is “Not Active”.

As to `CCN(C(C)=O)c1cccc(-c2ccnc3c(C#N)cnn23)c1` [ZALEPLON], the IC50 result (against Substance-P receptor; in assay [1] (cho-k1); in assay [2]; in assay [3] (cho-k1); in assay [4]; at Adenosine receptor A3) was “Not Active” each time. Further, in assay [4], the Ki result was “Not Active”.

Turning to COBALTOUS CHLORIDE, the IC50 result (against Substance-P receptor; in assay [1] (cho-k1); in assay [2]; in assay [3] (cho-k1); in assay [4]; on Adenosine receptor A3) was “Not Active” in each case. Also, the Ki result (on Substance-P receptor; in assay [1] (cho-k1); in assay [2]; in assay [3] (cho-k1); in assay [4]; at Adenosine receptor A3) was “Not Active” throughout.

For COLISTIN, the IC50 result (against Substance-P receptor; in assay [1] (cho-k1); in assay [2]; in assay [3] (cho-k1); in assay [4]; at Adenosine receptor A3) was “Not Active” in each case. In addition, the Ki result (at Substance-P receptor; in assay [1] (cho-k1); in assay [2]; in assay [3] (cho-k1); in assay [4]; at Adenosine receptor A3) was “Not Active” each time.

For the origin of these results see ChEMBL document CHEMBL1909046, “DrugMatrix in vitro pharmacology data”.
